Drawing on patent US20170121344A1 (Siga Technologies, Inc., priority 2009, published 2017), this text covers EC50 for 25 compounds.

Molecules are shown by their SMILES. Read-outs that look alike come from different tables or passages of the source.

The test system of this experiment is Dengue-2 (Strain New Guinea C). The experiment is described as follows: Viral yield assay against Dengue-2 in Vero cells. The class given is cell-based, Dengue virus. As to conditions: Dengue virus, read-out: Activity (EC50 class) against Dengue-2 Virus in Vero cells. The method, then:
Compounds that were active in the primary screen were tested for activity in viral yield assays. […] Vero cells in 12-well plates were infected with dengue-2 virus at a multiplicity of infection (MOI) of 0.1, treated with compound (or DMSO as a control), incubated at 37° C., harvested 48 hours post infection and titered on Vero cells as described above. The EC50 was calculated through ExcelFit. Activities against other serotypes of dengue virus were determined in a similar way.

Setting [1] is: Vero cells, MOI 0.1, harvested 48 hours post infection.

As a reminder, the EC50 is the midpoint of the concentration-response curve. With `NC(=O)c1sc2nc(-c3cccs3)cc(-c3ccc(F)cc3)c2c1N` [Compound 2, 3-Amino-4-(4-fluoro-phenyl)-6-thiophen-2-yl-thieno[2,3-b]pyridine-2-carboxylic acid amide], the concentration for a half-maximal effect (EC50) under setting [1] was less than 5 µM.
Same read-out and setting: then `Nc1c(C(=O)Nc2cccc(C(F)(F)F)c2)sc2nc(-c3cccs3)ccc12` [Compound 3, 3-Amino-6-thiophen-2-yl-thieno[2,3-b]pyridine-2-carboxylic acid (3-trifluoromethyl-phenyl)-amide], with less than 5 µM.
With `Cc1csc(NC(=O)c2sc3nc(C)c4c(c3c2N)CCCC4)n1` [Compound 4, 1-Amino-5-methyl-6,7,8,9-tetrahydro-thieno[2,3-c]isoquinoline-2-carboxylic acid (4-methyl-thiazol-2-yl)-amide], the EC50 (Vero, 48 h) was less than 5 µM.
On to `Nc1c(C(=O)Nc2nnc(-c3ccccc3)s2)sc2nc(-c3cccs3)cc(C(F)(F)F)c12` [Compound 5, 3-Amino-6-thiophen-2-yl-4-trifluoromethyl-thieno[2,3-b]pyridine-2-carboxylic acid (5-phenyl-[1,3,4]thiadiazol-2-yl)-amide], for which the EC50 under setting [1] was less than 5 µM.
`N#Cc1c(N)nc2sc(C(=O)Nc3ccc(Br)cc3)c(N)c2c1-c1ccco1` [Compound 6, 3,6-Diamino-5-cyano-4-furan-2-yl-thieno[2,3-b]pyridine-2-carboxylic acid (4-bromo-phenyl)-amide]: the EC50 under setting [1] is less than 5 µM.
Same read-out and setting: then `COc1ccc(-c2cc(C3CC3)nc3sc(C(N)=O)c(N)c23)cc1` [Compound 7, 3-Amino-6-cyclopropyl-4-(4-methoxy-phenyl)-thieno[2,3-b]pyridine-2-carboxylic acid amide], with less than 5 µM; and `NC(=O)c1sc2nc(C3CC3)cc(-c3ccccc3)c2c1N` [Compound 8, 3-Amino-6-cyclopropyl-4-phenyl-thieno[2,3-b]pyridine-2-carboxylic acid amide], with less than 5 µM.
As for `Cc1cc(C)c2c(N)c(C(=O)Nc3cccc(C(F)(F)F)c3)sc2n1` [Compound 9, 3-Amino-4,6-dimethyl-thieno[2,3-b]pyridine-2-carboxylic acid (3-trifluoromethyl-phenyl)-amide], where the note is “Vero, 48 h”, the concentration giving a half-maximal response (EC50) is less than 5 µM.
Same read-out and setting: then `Nc1c(C(=O)Nc2nccs2)sc2nc3c(c(-c4ccccc4Cl)c12)CCCC3` [Compound 10, 3-Amino-4-(2-chloro-phenyl)-5,6,7,8-tetrahydro-thieno[2,3-b]quinoline-2-carboxylic acid thiazol-2-ylamide], with less than 5 µM.
Take `NC(=O)c1sc2nc3c(c(-c4ccco4)c2c1N)CCCC3` [Compound 11, 3-Amino-4-furan-2-yl-5,6,7,8-tetrahydro-thieno[2,3-b]quinoline-2-carboxylic acid amide]: under setting [1], the EC50 was less than 5 µM.
As for `Nc1c(C(=O)Nc2cccc(C(F)(F)F)c2)sc2nc3c(cc12)C(=O)CCC3` [Compound 12, 3-Amino-5-oxo-5,6,7,8-tetrahydro-thieno[2,3-b]quinoline-2-carboxylic acid (3-trifluoromethyl-phenyl)-amide], the half-maximal effective concentration (EC50) (Vero, 48 h) was less than 5 µM.
Take `CN1CCc2nc3sc(C(=O)Nc4ccc(Cl)cc4)c(N)c3cc2C1` [Compound 13, 3-Amino-6-methyl-5,6,7,8-tetrahydro-thieno[2,3-b][1,6]naphthyridine-2-carboxylic acid (4-chloro-phenyl)-amide]: the concentration giving a half-maximal response (EC50) (Vero, 48 h) is less than 5 µM.
`CN1CCc2nc3sc(C(=O)NCc4ccc(F)cc4)c(N)c3cc2C1` [Compound 14, 3-Amino-6-methyl-5,6,7,8-tetrahydro-thieno[2,3-b][1,6]naphthyridine-2-carboxylic acid 4-fluoro-benzylamide]: under setting [1], the EC50 was less than 5 µM.
For `CCN(CC)C(=O)c1sc2nc3c(cc2c1N)CN(C)CC3` [Compound 15, 3-Amino-6-methyl-5,6,7,8-tetrahydro-thieno[2,3-b][1,6]naphthyridine-2-carboxylic acid diethylamide], the 50% effective concentration (EC50) under setting [1] was less than 5 µM.
On to `CN1CCc2nc3sc(C(=O)Nc4ccc(F)c(F)c4)c(N)c3cc2C1` [Compound 16, 3-Amino-6-methyl-5,6,7,8-tetrahydro-thieno[2,3-b][1,6]naphthyridine-2-carboxylic acid (3,4-difluoro-phenyl)-amide], for which the EC50 under setting [1] was less than 5 µM.
Same read-out and setting: then `Cc1ccc(NC(=O)c2sc3nc4c(cc3c2N)CN(C)CC4)c(C)c1` [Compound 17, 3-Amino-6-methyl-5,6,7,8-tetrahydro-thieno[2,3-b][1,6]naphthyridine-2-carboxylic acid (2,4-dimethyl-phenyl)-amide], with less than 5 µM.
Take `CN1CCc2nc3sc(C(=O)Nc4cccc(Cl)c4)c(N)c3cc2C1` [Compound 18, 3-Amino-6-methyl-5,6,7,8-tetrahydro-thieno[2,3-b][1,6]naphthyridine-2-carboxylic acid (3-chloro-phenyl)-amide]: the concentration for a half-maximal effect (EC50) under setting [1] is less than 5 µM.
Still for that read-out and setting: then `CN1CCc2nc3sc(C(=O)Nc4ccccc4Cl)c(N)c3cc2C1` [Compound 19, 3-Amino-6-methyl-5,6,7,8-tetrahydro-thieno[2,3-b][1,6]naphthyridine-2-carboxylic acid (2-chloro-phenyl)-amide], with less than 5 µM; and `CN1CCc2nc3sc(C(=O)Nc4ccc(N(C)C)cc4)c(N)c3cc2C1` [Compound 20, 3-Amino-6-methyl-5,6,7,8-tetrahydro-thieno[2,3-b][1,6]naphthyridine-2-carboxylic acid (4-dimethylamino-phenyl)-amide], with less than 5 µM; and `CCN1CCc2nc3sc(C(=O)Nc4ccc(C(F)(F)F)cc4)c(N)c3cc2C1` [Compound 21, 3-Amino-6-ethyl-5,6,7,8-tetrahydro-thieno[2,3-b][1,6]naphthyridine-2-carboxylic acid (4-trifluoromethyl-phenyl)-amide], with less than 5 µM.
`CCN1CCc2nc3sc(C(=O)N4CCc5ccccc5C4)c(N)c3cc2C1` [Compound 22, (3-Amino-6-ethyl-5,6,7,8-tetrahydro-thieno[2,3-b][1,6]naphthyridin-2-yl)-(3,4-dihydro-1H-isoquinolin-2-yl)-methanone]: the half-maximal effective concentration (EC50) (Vero, 48 h) is less than 5 µM.
With `COc1ccc(NC(=O)c2sc3nc4c(cc3c2N)CN(C(C)C)CC4)cc1` [Compound 23, 3-Amino-6-isopropyl-5,6,7,8-tetrahydro-thieno[2,3-b][1,6]naphthyridine-2-carboxylic acid (4-methoxy-phenyl)-amide], under setting [1], the concentration for a half-maximal effect (EC50) is less than 5 µM.
Still for that read-out and setting: then `CC(C)N1CCc2nc3sc(C(=O)Nc4cccc(F)c4)c(N)c3cc2C1` [Compound 24, 3-Amino-6-isopropyl-5,6,7,8-tetrahydro-thieno[2,3-b][1,6]naphthyridine-2-carboxylic acid (3-fluoro-phenyl)-amide], with less than 5 µM.
Consider `CCOC(=O)c1ccc(NC(=O)c2sc3nc4c(cc3c2N)CN(C(C)C)CC4)cc1` [Compound 25, 4-[(3-Amino-6-isopropyl-5,6,7,8-tetrahydro-thieno[2,3-b][1,6]naphthyridine-2-carbonyl)-amino]-benzoic acid ethyl ester], for which the concentration giving a half-maximal response (EC50) under setting [1] is less than 5 µM.
As to `CC(C)N1CCc2nc3sc(C(=O)NCc4ccc5c(c4)OCO5)c(N)c3cc2C1` [Compound 26, 3-Amino-6-isopropyl-5,6,7,8-tetrahydro-thieno[2,3-b][1,6]naphthyridine-2-carboxylic acid (benzo[1,3]dioxol-5-ylmethyl)-amide], the EC50 (Vero, 48 h) is less than 5 µM.
